For nine compounds, viability and MTD results are on record in US6645983B1, “Pharmaceutical compositions comprising 4-quinolones for treating cancers” (Laboratoire L. Lafon, priority 1999, dated 2003).

A value given as a limit tells only on which side of the number the result lay.

For data set [1], the system named is T24. The data set is described as follows: MTT test, cytotoxic activity on non-clonogenic cell lines. Type of data set: cell-based. To be noted: Homo sapiens, T-24; 10^−5 M, 72 hours of incubation, control condition = 100%, mean value; read-out: mean optical density as percentage of control, T24. Summed up:
(§1)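 Human bladder cancer lines were seeded at 20 000–50 000 cells/ml and, after 24 h, exposed to compounds at 10^−5 to 10^−10 M against a solvent control. Formazan was dissolved in DMSO and viability was read by spectrophotometric optical density.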
(Formazan colour is commonly taken as a measure of viable cells.)

The test system of data set [2] is J82. The data set is described as above. To be noted: Homo sapiens, 10^−5 M, 72 hours of incubation, control condition = 100%, mean value, read-out: mean optical density as percentage of control, J82. The data set is classed as cell-based. Summed up: as §1
Data set [3] concerns SW1088. The description is as above. Type of data set: cell-based. To be noted: Homo sapiens, 10^−5 M, 72 hours of incubation, control condition = 100%, mean value, read-out: mean optical density as percentage of control, SW1088. Summed up: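 Human astrocytoma SW1088 cells seeded, grown 24 h at 37° C, 5% CO2, then exposed to compounds at 10^−5 to 10^−10 M versus solvent control. Viability by MTT reduction: 3 h MTT incubation, formazan dissolved in DMSO and read by spectrophotometry.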

Data set [4] concerns U-87MG. The data set is described as above. Type of data set: cell-based. To be noted: Homo sapiens, U-87 MG; 10^−5 M, 72 hours of incubation, control condition = 100%, mean value; read-out: mean optical density as percentage of control, U-87MG. Summed up: (§2)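 Compounds span 10^−5 to 10^−10 M, with solvent-treated wells as control, and the formazan is quantified by absorbance after DMSO solubilization.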

In data set [5] the test system is PC-3. The data set is described as above. The data set is classed as cell-based. The note with it: Homo sapiens, 10^−5 M, 72 hours of incubation, control condition = 100%, mean value, read-out: mean optical density as percentage of control, PC-3. Summed up: as §2
For data set [6], the system named is MCF7. Described as above. The note with it: Homo sapiens, 10^−5 M, 72 hours of incubation, control condition = 100%, mean value, read-out: mean optical density as percentage of control, MCF7. Type of data set: cell-based. Summed up: as §2
For data set [7], the system named is U-373MG. The description is as above. Type of data set: cell-based. To be noted: Homo sapiens, U373 MG; 10^−5 M, 72 hours of incubation, control condition = 100%, mean value; read-out: mean optical density as percentage of control, U-373MG. Summed up: as §2
In data set [8] the test system is T-47D. Described as above. Type of data set: cell-based. The note with it: Homo sapiens, T47D; 10^−5 M, 72 hours of incubation, control condition = 100%, mean value; read-out: mean optical density as percentage of control, T-47D. Summed up: as §2
In data set [9] the test system is LoVo. The data set is described as above. The data set is classed as cell-based. The note with it: Homo sapiens, 10^−5 M, 72 hours of incubation, control condition = 100%, mean value, read-out: mean optical density as percentage of control, LoVo. Summed up:
as §2

Data set [10] has as its system A-427. The description is as above. The data set is classed as cell-based. To be noted: Homo sapiens, 10^−5 M, 72 hours of incubation, control condition = 100%, mean value, read-out: mean optical density as percentage of control, A-427. Summed up:
as §2

The subject of data set [11] is A549. The description is as above. Type of data set: cell-based. The note with it: Homo sapiens, 10^−5 M, 72 hours of incubation, control condition = 100%, mean value, read-out: mean optical density as percentage of control, A549. Summed up: as §2
Data set [12] deals with HCT-15. The description is as above. Type of data set: cell-based. The note with it: Homo sapiens, 10^−5 M, 72 hours of incubation, control condition = 100%, mean value, read-out: mean optical density as percentage of control, HCT-16. Summed up:
as §2

The nature of data set [13]: Determination of the maximum tolerated dose (MTD). The note with it: B6D2F1/Jico, mouse, in vivo, ip; single intraperitoneal administration, doses 2.5 to 160 mg/kg, survival over 14 days. Summed up:
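Mice were 4- to 6-week-old B6D2F1/Jico. They received a single intraperitoneal dose of 2.5 to 160 mg/kg, and survival and body weight were followed for 14 days. MTD is given in mg/kg and is capped at 160 mg/kg by default.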

What is called MTD is the largest dose that counted as tolerated. A high value points to a wide tolerated range. Turning to `COc1ccc(-c2cn(CCN(C)C)c3c(OC)ccc(OC)c3c2=O)cc1` [CRL8382, N-[3-(Dimethylamino)ethyl]-5,8-dimethoxy-3-(4-methoxyphenyl)-1,4-dihydro-4-quinolinone], the viability at 10 µM in data set [1] amounted to 99.7%; in [2], 95.6%; in [3], 118%; in data set [4], 59.2%; in [5], 100%; in data set [6], 93%. The viability at 10 µM was 101% in data set [7]; 94.7% in [8]; 96.7% in data set [9]; 89.2% in data set [10]; 90.4% in [11]; 93.1% in data set [12]. The compound also came in with a maximum tolerated dose (MTD) at 14 day in [13] of more than 160 mg/kg.

`COc1ccc(OC)c2c1c(=O)c(-c1ccccc1)cn2C` [CRL8383, 5,8-Dimethoxy-1-methyl-3-phenyl-1,4-dihydro-4-quinolinone]: the viability at 10 µM in [1] was 180%; in data set [2], 94.6%; in data set [3], 75.9%; in data set [4], 69.5%; in data set [5] it was 88.3%; in data set [6], 85%. In addition, the viability at 10 µM in [7] was 83.5%; in data set [8], 75.3%; in data set [9], 89.1%; in data set [10] it was 92.1%; in [11] it was 84.1%; in data set [12], 100%. This compound also came in with an MTD at 14 day in [13] of more than 160 mg/kg.

On to `COc1ccc(-c2c[nH]c3c(OC)ccc(O)c3c2=O)cc1` [CRL8391, 5-Hydroxy-8-methoxy-3-(4-methoxyphenyl)-1,4-dihydro-4-quinolinone], for which the viability at 10 µM in data set [1] was 101%; in data set [2] it was 99.6%; in data set [3], 92.5%; in [4], 74%; in data set [5], 80%; in data set [6], 97.3%. Moreover, the viability at 10 µM in data set [7] stood at 93.5%; in data set [8] it was 99.3%; in data set [9], 87.2%; in data set [10] it was 80.5%; in [11], 88.3%; in [12], 80.6%. In [13], this compound registered a maximal tolerated dose (MTD) at 14 day of more than 160 mg/kg.

As to `COc1ccc(-c2cn(C)c3c(OC)ccc(O)c3c2=O)cc1` [CRL8392, 5-Hydroxy-8-methoxy-3-(4-methoxyphenyl)-1-methyl-1,4-dihydro-4-quinolinone], the viability at 10 µM is 63% in [1]; 70.6% in data set [2]; 89.8% in data set [3]; 82.7% in data set [4]; 51.6% in data set [5]; 74% in data set [6]. Further, the viability at 10 µM in [7] was found to be 90.2%; in data set [8], 68.6%; in data set [9], 79.7%; in [10], 49.7%; in [11], 77.6%; in data set [12] it was 77.4%. The compound also showed an MTD at 14 day in [13] of more than 160 mg/kg.

With `CCc1cc(OC)cc2c1c(=O)c(-c1ccc(OC)cc1)cn2C` [CRL8393, 5-Ethyl-7-methoxy-3-(4-methoxyphenyl)-1-methyl-1,4-dihydro-4-quinolinone], the viability at 10 µM was found to be 95.3% in [1]; 97.9% in data set [2]; 82.8% in [3]; 89.9% in data set [4]; 87.3% in data set [5]; 89.7% in data set [6]. Moreover, the viability at 10 µM in data set [7] was found to be 74.7%; in [8] it was 68.8%; in [9], 84.6%; in data set [10], 23.7%; in [11], 93%; in data set [12], 41.8%. The compound further returned an MTD at 14 day in data set [13] of more than 160 mg/kg.

For `COc1ccc(-c2cn(C)c3cc(OC)cc(-c4ccccc4)c3c2=O)cc1` [CRL8394, 7-Methoxy-3-(4-methoxyphenyl)-1-methyl-5-phenyl-1,4-dihydro-4-quinolinone], the viability at 10 µM in data set [1] is 92.9%; in [2], 93.5%; in data set [3], 68.5%; in [4] it was 42.2%; in [5], 83.2%; in data set [6], 78%. Besides, the viability at 10 µM in data set [7] is 73.5%; in data set [8] it was 94.3%; in data set [9], 45.1%; in data set [10], 38.9%; in data set [11] it was 52.9%; in data set [12], 37.7%. Besides, in data set [13], the MTD at 14 day is more than 160 mg/kg.

As to `CCOC(=O)CCn1cc(-c2ccc(OC)cc2)c(=O)c2c(OC)cc(OC)cc21` [CRL8404], the viability at 10 µM in [1] came out at 59.8%; in data set [2], 83.8%; in data set [3], 72.1%; in data set [4] it was 91.5%; in data set [5], 99.7%; in data set [6], 93.4%. The viability at 10 µM worked out at 104% in data set [7]; 66.7% in data set [8]; 90.7% in data set [9]; 93.3% in data set [10]; 93.5% in data set [11]; 93.7% in data set [12]. In addition, the maximal tolerated dose (MTD) at 14 day in data set [13] was more than 160 mg/kg.

Turning to `COc1ccc(-c2cn(C)c3c(OC)ccc(-c4ccccc4)c3c2=O)cc1` [CRL8405, 8-Methoxy-3-(4-methoxyphenyl)-1-methyl-5-phenyl-1,4-dihydro-4-quinolinone], the viability at 10 µM in [1] was 57.8%; in [2] it was 93.9%; in data set [3], 40.8%; in data set [4], 25.8%; in [5], 85.5%; in data set [6], 68.2%. The viability at 10 µM in data set [7] came to 28.8%; in [8], 77.1%; in [9], 32.3%; in data set [10], 19.4%; in data set [11] it was 32%; in data set [12] it was 15.9%. This compound also had a maximal tolerated dose (MTD) at 14 day in data set [13] of more than 160 mg/kg.

Turning to `COc1ccc(-c2cn(CCC#N)c3cc(OC)cc(OC)c3c2=O)cc1` [CRL8412, 3-[5,7-Dimethoxy-3-(4-methoxyphenyl)-4-oxo-1,4-dihydro-1-quinolinyl]propanenitrile], the viability at 10 µM in data set [1] turned out to be 100%; in data set [2] it was 94.2%; in [3], 105%; in [4], 83.4%; in [5] it was 104%; in [6] it was 99.1%. For the same compound, the viability at 10 µM was 80.8% in [7]; 109% in [8]; 77% in data set [9]; 83.7% in [10]; 84.5% in data set [11]; 83.6% in data set [12]. In addition, the maximal tolerated dose (MTD) at 14 day in [13] is more than 160 mg/kg.
